Results as given in patent publication US20250058024A1, “INJECTABLE TOUGH AND VISCOELASTIC BTA HYDROGEL” (UNIVERSITEIT MAASTRICHT, priority 2021, published 2025).

How the values were obtained:
[1] = cited from earlier work
[2] = Storage and handling stability of activated ester synthons; type: physicochemical; settings: for stability on handling in the lab: open handling in the lab, humid environment, 1H NMR
Source text: With the knowledge of proton chemical shift and peak splitting pattern of products, we were able to analyse the crude reaction mixtures and quickly determine the relative amount of the products in the reaction mixture. Molecule 1 produced a 57% yield of 5 (monosubstituted) when treated with 1.0 equiv nucleophile. The desymmetrization of 2 behaved similarly, and after separation and characterization the crude reaction mixture produced a 38% yield of 6 (monosubstituted derivative). […] When the same reaction was run for two equivalents of hexylamine, 1 produced 7 (disubstituted) in 48% yield and 2 produced 8 in 54% yield. […] With promising results, we then turned to desymmetrization of the penta-fluorophenol synthon, 3. […] After ^1H NMR analysis, we were able to determine the ratio of substituted derivatives in the crude reaction mixture (a similar pattern of doublet/triplets and singlets was observed as in the desymmetrization of 1). […] Both desymmetrization reactions yielded higher than statisctical yields and the products were able to be readily isolated via column chromatography. When developing a reactive synthon for desymmetrization, stability and scalability are also important factors to consider. […] Purification of 1 and 2 required a large volume of solvents owing to limited solubility (100s of mL for 10s of mg), while 3 offered a short one-step work up with good solubility.
Due to its ease of synthesis, stability, desymmetrization, and purification, 3 was determined to be the best candidate to work with moving forward. […] Furthermore, the stability of the F5Ph esters on 3 also offers easy separation of desymmetrized intermediates using flash column chromatography.
In order to test the applicability of the reaction methodology to different amine based neuclopehiles/side-arms, we attempted a few different amines. […] (Scheme 3).

[3] = under an inert (and dry) atmosphere

stability on storage [2, 3] | SMILES | pka [1] | stability on handling in the lab [2] | further results
– | Oc1c(F)c(F)c(F)c(F)c1F [2,3,4,5,6-pentafluorophenol] | 5.4 | – | –
– | O=[N+]([O-])c1cccc(O)c1 [3-nitrophenol] | 8.36 | – | –
– | O=C1CCC(=O)N1O [N-hydroxy succinimide] | 6.0 | – | –
– | O=C(Oc1cccc([N+](=O)[O-])c1)c1cc(C(=O)Oc2cccc([N+](=O)[O-])c2)cc(C(=O)Oc2cccc([N+](=O)[O-])c2)c1 [compound 1] | – | started to hydrolyze | stability on storage ([2]; in a desiccator): stable in a desiccator when stored for a year
– | O=C(Oc1ccc([N+](=O)[O-])cc1)c1cc(C(=O)Oc2ccc([N+](=O)[O-])cc2)cc(C(=O)Oc2ccc([N+](=O)[O-])cc2)c1 [compound 2] | – | started to hydrolyze | stability on storage ([2]; in a desiccator): stable in a desiccator when stored for a year
stable over years | O=C(Oc1c(F)c(F)c(F)c(F)c1F)c1cc(C(=O)Oc2c(F)c(F)c(F)c(F)c2F)cc(C(=O)Oc2c(F)c(F)c(F)c(F)c2F)c1 [compound 3, 1,3,5-benzenetricarbonylpentafluoroester] | – | stable for more than two years | –
stable over months | CCCCCCNC(=O)c1cc(C(=O)Oc2c(F)c(F)c(F)c(F)c2F)cc(C(=O)Oc2c(F)c(F)c(F)c(F)c2F)c1 [compound 9] | – | – | –
stable over months | CCCCCCNC(=O)c1cc(C(=O)NCCCCCC)cc(C(=O)Oc2c(F)c(F)c(F)c(F)c2F)c1 [compound 10] | – | – | –
